Experimental data reported in ChEMBL document CHEMBL1158392, “Synthesis and biological evaluation of abietic acid derivatives” (Eur J Med Chem, 2009).
≈ marks a conversion by molar mass, not a printed value. Calls of active or inactive are those of the source. The rule behind the calls is not given here.

How the values were obtained:
HeLa [1] = assay: Cytotoxicity against human HeLa cells; format: cell-based
Human alphaherpesvirus 1 [2] = assay: Antiviral activity against HSV1 infected in human HeLa cells assessed as viral reduction factor preincubated for 0.5 hrs before infection measured after 36 hrs by end point titration technique relative to control; format: functional
Human alphaherpesvirus 1 [3] = assay: Antiviral activity against HSV1 infected in human HeLa cells assessed as maximum dose required for highest viral reduction factor preincubated for 0.5 hrs before infection measured after 36 hrs by end point titration technique; format: functional
Candida parapsilosis = assay: Antifungal activity against Candida parapsilosis ATCC 22019 upto 100 ug/mL after 24 hrs by AFST-EUCAST method; format: functional, organism-based
Pichia kudriavzevii = assay: Antifungal activity against Candida krusei ATCC 6258 upto 100 ug/mL after 24 hrs by AFST-EUCAST method; format: functional, organism-based
Candida tropicalis = assay: Antifungal activity against Candida tropicalis CECT 11901 upto 100 ug/mL after 24 hrs by AFST-EUCAST method; format: functional, organism-based
Candida albicans = assay: Antifungal activity against Candida albicans ATCC 10231 upto 100 ug/mL after 24 hrs by AFST-EUCAST method; format: functional, organism-based
Aspergillus flavus = assay: Antifungal activity against Aspergillus flavus ATCC 204304 upto 100 ug/mL after 48 hrs by CLSI M38-A broth dilution method; format: functional, organism-based
Aspergillus fumigatus [4] = assay: Antifungal activity against Aspergillus fumigatus ATCC 204305 upto 100 ug/mL after 48 hrs by CLSI M38-A broth dilution method; format: functional, organism-based
Aspergillus terreus = assay: Antifungal activity against Aspergillus terreus CDC 317 upto 100 ug/mL after 48 hrs by CLSI M38-A broth dilution method; format: functional, organism-based
Aspergillus niger = assay: Antifungal activity against Aspergillus niger ATCC 10124 upto 100 ug/mL after 48 hrs by CLSI M38-A broth dilution method; format: functional, organism-based
HeLa [5] = assay: Cytotoxicity against human HeLa cells after 48 hrs by MTT assay; format: functional
[6] = Cytotoxicity against african green monkey Vero cells after 48 hrs by MTT assay; format: cell-based; details: chlorocebus sabaeus
[7] = Selectivity index, ratio of CC50 for african green monkey Vero cells to CC50 for human HeLa cells; format: functional
Aspergillus fumigatus [8] = assay: Antifungal activity against Aspergillus fumigatus ATCC 204305 after 48 hrs by CLSI M38-A broth dilution method; format: functional; details: ATCC 204305, 48 h

MIC (Candida parapsilosis) | MIC (Pichia kudriavzevii) | MIC (Candida tropicalis) | MIC (Candida albicans) | MIC (Aspergillus flavus) | MIC (Aspergillus fumigatus [4]) | MIC (Aspergillus terreus) | MIC (Aspergillus niger) | MIC (Aspergillus fumigatus [8]) | Compound | CC100 (HeLa [1]) | Activity (Human alphaherpesvirus 1 [2]) | Activity (Human alphaherpesvirus 1 [3]) | CC50 (HeLa [5]) | CC50 at 48 h [6] | Selectivity Index [7]
– | – | – | – | – | – | – | – | – | Nc1nc2c(ncn2COCCO)c(=O)[nH]1 [ACYCLOVIR] | > 600 µg/mL | 10 | 6 µg/mL | – | – | –
inactive | inactive | inactive | inactive | inactive | inactive | inactive | inactive | – | CC(C)=C1CCC2=C(CC[C@H]3[C@](C)(C=O)CCC[C@]23C)C1 | > 100 µg/mL | inactive | – | 33.4 µg/mL (≈ 117 µM) | 55.3 µg/mL (≈ 193 µM) | 1.6
inactive | inactive | inactive | inactive | inactive | inactive | inactive | inactive | – | CC(C)C1=CC2=CC[C@@H]3[C@](C)(CCC[C@@]3(C)C(=O)O)[C@H]2CC1 [ABIETIC ACID] | > 100 µg/mL | inactive | – | 14.9 µg/mL (≈ 49.3 µM) | 52.5 µg/mL (≈ 174 µM) | 3.5
inactive | inactive | inactive | inactive | inactive | inactive | inactive | inactive | – | CC(C)=C1CCC2=C(CC[C@H]3[C@](C)(C(=O)O)CCC[C@]23C)C1 | > 100 µg/mL | 10 | 100 µg/mL | 53.1 µg/mL (≈ 176 µM) | 43.9 µg/mL (≈ 145 µM) | 0.8
inactive | inactive | inactive | inactive | inactive | inactive | inactive | inactive | – | CC(C)=C1CCC2=C(CC[C@H]3[C@](C)(CO)CCC[C@]23C)C1 | 100 µg/mL | inactive | – | 19.7 µg/mL (≈ 68.3 µM) | 20.2 µg/mL (≈ 70 µM) | 1
inactive | inactive | inactive | inactive | inactive | inactive | inactive | inactive | – | CC(C)C1=CC2=CC[C@H]3[C@](C)(CO)CCC[C@]3(C)[C@H]2CC1 | 25 µg/mL | 10 | 6.25 µg/mL | 5.2 µg/mL (≈ 18 µM) | 12.7 µg/mL (≈ 44 µM) | 2.4
inactive | inactive | inactive | inactive | inactive | inactive | inactive | inactive | – | COC(=O)[C@]1(C)CCC[C@]2(C)C3=C(CC[C@@H]12)CC(=C(C)C)CC3 | 100 µg/mL | inactive | – | 46.6 µg/mL (≈ 147 µM) | 19.2 µg/mL (≈ 60.7 µM) | 0.4
inactive | inactive | inactive | inactive | inactive | – | inactive | inactive | 50 µg/mL (≈ 175 µM) | CC(C)C1=CC2=CC[C@@H]3[C@](C)(CCC[C@@]3(C)C=O)[C@H]2CC1 | > 50 µg/mL | 10 | 12.5 µg/mL | 5.6 µg/mL (≈ 19.5 µM) | 31.5 µg/mL (≈ 110 µM) | 5.6
– | – | – | – | – | – | – | – | – | CC[C@]1(O)C[C@H]2CN(CCc3c([nH]c4ccccc34)[C@@](C(=O)OC)(c3cc4c(cc3OC)N(C=O)[C@H]3[C@@](O)(C(=O)OC)[C@H](OC(C)=O)[C@]5(CC)C=CCN6CC[C@]43[C@@H]65)C2)C1 [VINCRISTINE] | – | – | – | 0.05 µg/mL (≈ 0.0606 µM) | 1.1 µg/mL (≈ 1.33 µM) | 22
inactive | inactive | inactive | inactive | inactive | inactive | inactive | inactive | – | COC(=O)[C@]1(C)CCC[C@@]2(C)[C@H]1CC=C1C=C(C(C)C)CC[C@@H]12 [METHYL ABIETATE] | 50 µg/mL | 10 | 6.25 µg/mL | 3.6 µg/mL (≈ 11.4 µM) | 49.4 µg/mL (≈ 156 µM) | 13.7
